“Also recorded” adds a separate entry of the source.
Experiments:
[1] = system: postmenopausal osteoporotic women; test: ACTIVE Phase 3 trial, post hoc high BMI subgroup: safety, treatment-emergent adverse events; type: in vivo, human; conditions: for Creatine renal clearance increased, (%): human
Procedure: (§1) The ACTIVE pivotal Phase 3 fracture prevention trial for the PTHrP analogue abaloparatide, Study BA058-05-003 (see ClinicalTrials.gov), was a randomized, double-blind, placebo-controlled trial in postmenopausal osteoporotic women randomized to receive daily doses of one of the following for 18 months: 80 micrograms (μg) of abaloparatide; a matching placebo; or the approved daily dose of 20 μg of teriparatide. Treatment with abaloparatide at a daily dose of 80 μg or placebo remained blinded to all parties throughout the study. Teriparatide used was a proprietary prefilled drug and device combination that could not be repackaged. Therefore, its identity could not be blinded to treating physicians and patients once use began. Study medication was self-administered daily by subcutaneous injection for a maximum of 18 months. All enrolled patients also received calcium and vitamin D supplementation from the time of enrollment until the end of the treatment period. It was recommended to patients that they also continue these supplements through the one-month follow-up period.
(§2) The trial completed enrollment in March 2013 with 2,463 patients at 28 medical centers in 10 countries in the United States, Europe, Latin America, and Asia. In a post hoc analysis, a subgroup of overweight patients, patients with high BMI (≥27 kg/m^2, ≥24 kg/m^2 for Asian patients) was evaluated. The baseline characteristics of this sub-group of patients are detailed in Table 1 below.
Safety evaluations performed in the ACTIVE trial included physical examinations, vital signs, 12-lead electrocardiograms, or ECGs, clinical laboratory tests and monitoring, and recording of adverse events. Specific safety assessments included pre-dose and post-dose (four hours) determination of serum calcium, determination of creatinine clearance, post-dose ECG assessments at selected visits, and assessments of postural hypotension (60 minutes post-dose) at selected clinic visits.
The ACTIVE trial also evaluated several potential safety measures. The treatment-emergent adverse events (TEAEs) reported by the overweight patients are summarized below in Table 2 for groups treated with placebo, abaloparatide, and teriparatide, respectively.

[2] = system: postmenopausal osteoporotic women; test: ACTIVE Phase 3 trial, post hoc high BMI subgroup: new vertebral fractures; type: in vivo, human; conditions: overweight population, 18 months; for relative risk reduction of new vertebral fractures versus placebo: abaloparatide 80 μg or teriparatide 20 μg daily subcutaneous
Procedure: as §1, §2
(§3) The study enrolled otherwise healthy ambulatory women aged 49 to 86 (inclusive) who had been postmenopausal for at least five years, met the study entry criteria, and had provided written informed consent. […] All patients were to be in good general health as determined by medical history, physical examination (including vital signs), and clinical laboratory testing. This study population contained a patient population reflective of the type of severe osteoporosis patients that specialists would be expected to treat in their practices.
The study endpoints included BMD, new vertebral fractures, nonvertebral fractures (fractures excluding those of the spine, sternum, patella, digits, skull, and face and those with high trauma), any clinical fractures (all fractures causing a patient to seek medical care), and major osteoporotic fractures (fractures of the upper arm, wrist, hip, or clinical spine). […] Time to first incident nonvertebral, clinical, major osteoporotic, and wrist fracture assessed using Kaplan-Meier (KM) method; log-rank test (intent-to-treat [ITT] population). Change from baseline BMD evaluated for total hip, femoral neck, and lumbar spine (missing data points imputed by last observation carried forward; ITT population).

[3] = system: postmenopausal osteoporotic women; test: ACTIVE Phase 3 trial, post hoc high BMI subgroup: nonvertebral, clinical, major osteoporotic and wrist fractures (Kaplan-Meier); type: in vivo, human
Procedure: as §1, §2, §3
(§4) The study endpoints included BMD, new vertebral fractures, nonvertebral fractures (fractures excluding those of the spine, sternum, patella, digits, skull, and face and those with high trauma), any clinical fractures (all fractures causing a patient to seek medical care), and major osteoporotic fractures (fractures of the upper arm, wrist, hip, or clinical spine). New vertebral fracture compared using Fisher exact test (modified intent-to-treat [mITT] population; participants with pretreatment/postbaseline spine x-rays). Time to first incident nonvertebral, clinical, major osteoporotic, and wrist fracture assessed using Kaplan-Meier (KM) method; log-rank test (intent-to-treat [ITT] population). Change from baseline BMD evaluated for total hip, femoral neck, and lumbar spine (missing data points imputed by last observation carried forward; ITT population).

[4] = system: postmenopausal osteoporotic women; test: ACTIVE Phase 3 trial, post hoc high BMI subgroup: BMD percent change from baseline; type: in vivo, human; conditions: for BMD increase as compared to placebo: total hip, femoral neck, lumbar spine
Procedure: as §1, §2, §3, §4

[5] = system: subjects treated with abaloparatide; test: Trabecular bone score (TBS) in treated subjects; type: in vivo, human
Description: TBS is also a predictor of fragility fractures of the spine and hip in postmenopausal overweight women independent of BMD and other major clinical risk factors. As such, it captures additional patients at risk of fracture that are missed by BMD alone, and together with BMD more accurately captures bone strength.

[6] = system: subjects treated with abaloparatide; test: Abaloparatide for 18 months followed by anti-resorptive therapy: fracture risk; type: in vivo, human; conditions: abaloparatide 18 months followed by anti-resorptive therapy (e.g., alendronate for 6 months)
[7] = system: ovariectomy-induced osteopenic monkeys; conditions: cited from earlier work
[8] = system: ovariectomy-induced osteopenic rats; conditions: cited from earlier work
[9] = system: subjects treated with abaloparatide; test: Bone turnover markers PINP and CTX in treated subjects; type: in vivo, human
[10] = overweight patients, abaloparatide n = 262, teriparatide n = 281
[11] = overweight population, 18 months
[12] = overweight patients, 6, 12 and 18 months

Which results are given for `CC[C@H](C)[C@H](NC(=O)[C@H](CCC(=O)O)NC(=O)[C@H](CO)NC(=O)[C@@H](NC(=O)[C@@H](N)CO)C(C)C)C(=O)N[C@@H](CCC(N)=O)C(=O)N[C@@H](CC(C)C)C(=O)N[C@@H](CCSC)C(=O)N[C@@H](Cc1cnc[nH]1)C(=O)N[C@@H](CC(N)=O)C(=O)N[C@@H](CC(C)C)C(=O)NCC(=O)N[C@@H](CCCCN)C(=O)N[C@@H](Cc1cnc[nH]1)C(=O)N[C@@H](CC(C)C)C(=O)N[C@@H](CC(N)=O)C(=O)N[C@@H](CO)C(=O)N[C@@H](CCSC)C(=O)N[C@@H](CCC(=O)O)C(=O)N[C@@H](CCCN=C(N)N)C(=O)N[C@H](C(=O)N[C@@H](CCC(=O)O)C(=O)N[C@@H](Cc1c[nH]c2ccccc12)C(=O)N[C@@H](CC(C)C)C(=O)N[C@@H](CCCN=C(N)N)C(=O)N[C@@H](CCCCN)C(=O)N[C@@H](CCCCN)C(=O)N[C@@H](CC(C)C)C(=O)N[C@@H](CCC(N)=O)C(=O)N[C@@H](CC(=O)O)C(=O)N[C@H](C(=O)N[C@@H](Cc1cnc[nH]1)C(=O)N[C@@H](CC(N)=O)C(=O)N[C@@H](Cc1ccccc1)C(=O)O)C(C)C)C(C)C` [Teriparatide, teriparatide]?
Creatine renal clearance increased, (%) ([1]; in vivo): (4.6) %; Arthralgia, (%) ([1]; in vivo): (7.1) %; Back pain, (%) ([1]; in vivo): (7.5) %; Discontinuations, (%) ([1]; in vivo): (7.5) %; Dizziness, (%) ([1]; in vivo): (8.2) %; Headache, (%) ([1]; in vivo): (6.8) %; Hypercalciuria, (%) ([1]; in vivo): (9.3) %; Hypertension, (%) ([1]; in vivo): (6.4) %; Nasopharyngitis, (%) ([1]; in vivo): (5.3) %; Nausea, (%) ([1]; in vivo): (3.9) %; Pain in extremity, (%) ([1]; in vivo): (3.6) %; Serious TEAEs, (%) ([1]; in vivo): (13.9) %; ≥1 TEAE, (%) ([1]; in vivo): (89.3) %; Deaths, (%) [1, 10]: (0.4) %; Influenza, (%) [1, 10]: (3.9) %; Upper respiratory tract infection, (%) [1, 10]: (9.6) %; Urinary tract infection, (%) [1, 10]: (6.8) %; new vertebral fractures, reduction vs. placebo [2]: significant reduction; relative risk reduction of new vertebral fractures versus placebo [2]: 74%; major osteoporotic fractures (MOF), reduction versus placebo (Kaplan-Meier estimated cumulative incidence) [3, 11]: Significant reduction; non-vertebral fractures (NVF), reduction versus placebo (Kaplan-Meier estimated cumulative incidence) [3, 11]: Significant reduction; delay compared with the abaloparatide group to achieve the same level of BMD increase at total hip and femoral neck ([4]; overweight patients): about 6 months; BMD increase as compared to placebo [4, 12]: significantly greater BMD increase

Which “trabecular bone score (TBS)” value ([5]; daily dose of 20 μg, 40 μg or 80 μg for 12 weeks to 24 weeks) does the source give for abaloparatide here?
The value was “significantly increase TBS”.

And the “trabecular bone score (TBS)” value ([5]; human, in vivo)?
Its value is “significant increase”.

And the “fracture risk versus placebo for 18 months followed by similar anti-resorptive therapy” value [6]?
Its value is “significant reduction”.

And the “Creatine renal clearance increased, (%)” value ([1]; in vivo)?
Its value is “(5.7) %”.

And the “Arthralgia, (%)” value ([1]; in vivo)?
Its value is “(9.2) %”.

What about the “Back pain, (%)” value ([1]; in vivo) of the same compound?
Its value is “(8.0) %”.

And the “Discontinuations, (%)” value ([1]; in vivo)?
The value was “(5.7) %”.

What about the “Dizziness, (%)” value ([1]; in vivo) of the same compound?
Its value is “(11.1) %”.

And the “Urinary tract infection, (%)” value ([1]; in vivo)?
Its value is “(6.9) %”.

And the “≥1 TEAE, (%)” value ([1]; in vivo)?
The value was “(91.6) %”.

What about the “Deaths, (%)” value [1, 10] of the same compound?
The value was “(0.8) %”.

And the “Headache, (%)” value [1, 10]?
The value was “(5.0) %”.

What about the “Hypercalciuria, (%)” value [1, 10] of the same compound?
Its value is “(9.5) %”.

And the “Hypertension, (%)” value [1, 10]?
Its value is “(9.5) %”.

What about the “Influenza, (%)” value [1, 10] of the same compound?
Its value is “(6.1) %”.

And the “Nasopharyngitis, (%)” value [1, 10]?
The value was “(5.0) %”.

And the “Nausea, (%)” value [1, 10]?
The value was “(6.1) %”.

What about the “Pain in extremity, (%)” value [1, 10] of the same compound?
Its value is “(6.9) %”.

What about the “Serious TEAEs, (%)” value [1, 10] of the same compound?
Its value is “(13.7) %”.

And the “Upper respiratory tract infection, (%)” value [1, 10]?
Its value is “(8.8) %”.

And the bone loss [7]?
Its bone loss is “complete reversal of bone loss”.

What about the bone loss [8] of the same compound?
The bone loss was “complete reversal of bone loss”.

And the “CTX marker (bone resorption)” value ([9]; at 18 months)?
The value was “quick return to the baseline”.

And the “bone formation marker PINP” value ([9]; human, in vivo)?
The value was “earlier increase”.

And the “new vertebral fractures, reduction vs. placebo” value [2]?
Its value is “statistically significant reduction; also recorded: significant risk reduction”.

And the “relative risk reduction of new vertebral fractures versus placebo” value [2]?
Its value is 81%.

And the “clinical fractures, reduction versus placebo” value [3, 11]?
Its value is “statistically significant reduction; also recorded: numerical reduction”.

What about the “major osteoporotic fractures (MOF), reduction versus placebo (Kaplan-Meier estimated cumulative incidence)” value [3, 11] of the same compound?
Its value is “statistically significant reduction; also recorded: significant risk reduction”.

What about the “non-vertebral fractures (NVF), reduction versus placebo (Kaplan-Meier estimated cumulative incidence)” value [3, 11] of the same compound?
Its value is “statistically significant reduction; also recorded: significant risk reduction”.

What about the “wrist fracture, reduction versus placebo” value [3, 11] of the same compound?
The value was “numerical reduction”.

And the “effect on NVF, clinical fractures, MOF and wrist fractures compared with teriparatide” value ([3]; overweight population, all categories)?
The value was “significantly better than teriparatide”.

What about the “risk of major osteoporotic fracture and any clinical fracture, irrespective of baseline fracture probability (FRAX)” value ([3]; postmenopausal overweight women) of the same compound?
Its value is “significantly decrease”.

And the “lumbar spine BMD versus placebo” value ([4]; at 6 months and 12 months)?
The value was “statistically significant increase”.

And the “lumbar spine BMD” value ([4]; at 18 months)?
Its value is “non-statistically significant BMD increase”.

What about the “BMD increase at total hip as compared to teriparatide” value [4, 12] of the same compound?
The value was “significantly greater BMD increase”.

And the “BMD increase for lumbar spine as compared to teriparatide” value ([4]; overweight patients, 6 months)?
The value was “significantly greater BMD increase”.

What about the “BMD increase at the femoral neck as compared to teriparatide” value ([4]; overweight patients, 12 and 18 months) of the same compound?
The value was “significantly greater BMD increase”.

And the “BMD increase as compared to placebo” value [4, 12]?
Its value is “significant improvements”.

What about the “BMD increase as compared to placebo” value ([4]; overweight patients, 6, 12 and 18 months, listed as abaloparatide) of the same compound?
The value was “significantly greater BMD increase”.

What about the “BMD in total hip and femoral neck versus teriparatide or placebo” value ([4]; treated for 18 months) of the same compound?
The value was “significant BMD increase”.

From patent US20260273025A1, “TREATMENT AND PREVENTION OF OSTEOPOROSIS IN HIGH BODY MASS INDEX INDIVIDUALS” (Radius Health, Inc., priority 2021, published 2026)
